Data reported in patent US6994991B1, “Identification of differentially methylated multiple drug resistance loci” (North Shore - Long Island Jewish Research Institute, priority 1998, dated 2006).
Where two headings read alike, the source gives them in different places.

Test system: MCF7/AdrR cells
Test: MTT viability assay of transfected drug resistant cells exposed to drug
Assay type: cell-based, human
Details: for IC50: Homo sapiens; for sensitivity of cells expressing WTH3 to drug: MCF7/AdrR cells transfected with pcDNA/WTH3
Source text: Reversion of MDR phenotype by overexpression of WTH3, RAB6 or RAB6C in MCF7/AdrR cells. WTH3, RAB6 and RAB6C cDNAs were inserted into pcDNA1.1/Amp expression vectors (Invitrogen Corp.) and transfected into drug resistant MCF7/AdrR cells (Lipofect Amine Plus™; Life Technologies, Inc., (GIBCO)). Expression of the exogenous WTH3 (pcDNA/WTH3), RAB6 (pcDNA/RAB6) or RAB6C (pcDNA/RAB6C) genes in transfected cells was confirmed by RT-PCR. Control cells were provided by transfection with pcDNA1.1/Amp which contained no insert. Cells were exposed to various concentrations of doxorubicin and viablity was determined after 72 hours by MTT assay. […] Cells expressing RAB6 or RAB6C cDNAs were tested for sensitivity to doxorubicin. […] The drug resistant control cells were 3.2 (P<0.0001) times more resistant to the antitumor drug than pcDNA/RAB6C containing cells and 2.2 (P<0.0001) times more resistant to the antitumor drug than pcDNA/RAB6 containing cells.

Row | IC50 (MCF7, 72 h, control cells transfected with pcDNA1.1/Amp (no insert), viability after 72 hours by MTT, read-out: Mean IC50± SD) [nM] | IC50 (MCF7, 72 h, pcDNA/RAB6C containing cells, viability after 72 hours by MTT, read-out: Mean IC50± SD) [nM] | IC50 (MCF7, 72 h, pcDNA/RAB6 containing cells, viability after 72 hours by MTT, read-out: Mean IC50± SD) [nM] | IC50 (MCF7, MCF7/AdrR cells carrying endogenously expressed RAB6C, read-out: IC50 for doxorubicin) [nM] | Compound | sensitivity of cells expressing WTH3 to drug | resistance of control cells relative to pcDNA/RAB6C containing cells (control vs pcDNA/RAB6C cells, P<0.0001) [times] | resistance of control cells relative to pcDNA/RAB6 containing cells (control vs pcDNA/RAB6 cells, P<0.0001) [times] | sensitivity to doxorubicin compared to cells transfected with a control vector (drug resistant cells transfected with a vector which expresses WTH3, RAB6C, or RAB6)
1 | 4930 ± 300 | 1530 ± 130 | 2230 ± 170 | 1000 to 2500 | COc1cccc2c1C(=O)c1c(O)c3c(c(O)c1C2=O)C[C@@](O)(C(=O)CO)C[C@@H]3O[C@H]1C[C@H](N)[C@H](O)[C@H](C)O1 [doxorubicin] | increased sensitivity | 3.2 | 2.2 | increased sensitivity
2 |  |  |  |  | CC[C@]1(O)C[C@H]2CN(CCc3c([nH]c4ccccc34)[C@@](C(=O)OC)(c3cc4c(cc3OC)N(C=O)[C@H]3[C@@](O)(C(=O)OC)[C@H](OC(C)=O)[C@]5(CC)C=CCN6CC[C@]43[C@@H]65)C2)C1 [vincristine] | increased sensitivity |  |  | 
